Assay results: ChEMBL document CHEMBL4819062, “Novel iodinated quinazolinones bearing sulfonamide as new scaffold targeting radiation induced oxidative stress” (Bioorg Med Chem Lett, 2021)
Calls of active or inactive are those of the source. The rule behind the calls is not given here.

Experiments:
[1] = target: T1, Nuclear factor erythroid 2-related factor 2 (Mus musculus) (UniProt Q60795); experiment: Activation of Nrf2 in mouse Hepa1c1c7 cells assessed as increase in NQO1 activity at 0.4 uM; format: cell-based; conditions: filed as activator
T1 sequence (whole entry): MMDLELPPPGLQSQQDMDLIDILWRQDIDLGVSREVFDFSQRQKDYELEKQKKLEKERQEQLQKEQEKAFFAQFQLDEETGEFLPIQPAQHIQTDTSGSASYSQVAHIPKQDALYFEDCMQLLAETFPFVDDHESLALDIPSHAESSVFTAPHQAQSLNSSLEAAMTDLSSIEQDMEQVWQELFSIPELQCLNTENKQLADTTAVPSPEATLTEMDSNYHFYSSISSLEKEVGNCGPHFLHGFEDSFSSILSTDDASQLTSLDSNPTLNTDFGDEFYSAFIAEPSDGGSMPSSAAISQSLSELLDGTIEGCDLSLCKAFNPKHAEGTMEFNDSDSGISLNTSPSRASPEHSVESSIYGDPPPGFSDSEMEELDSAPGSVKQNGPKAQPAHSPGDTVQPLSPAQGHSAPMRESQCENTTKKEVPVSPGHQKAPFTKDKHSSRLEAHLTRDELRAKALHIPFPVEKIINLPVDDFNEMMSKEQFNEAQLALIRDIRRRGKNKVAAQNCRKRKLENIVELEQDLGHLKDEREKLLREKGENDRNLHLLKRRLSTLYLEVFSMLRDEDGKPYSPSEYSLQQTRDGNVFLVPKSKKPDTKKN

[2] = target: T1, Nuclear factor erythroid 2-related factor 2 (Mus musculus); experiment: Activation of Nrf2 in mouse Hepa1c1c7 cells assessed as increase in NQO1 activity at 0.8 uM; format: cell-based; conditions: filed as activator
[3] = target: T1, Nuclear factor erythroid 2-related factor 2 (Mus musculus); experiment: Activation of Nrf2 in mouse Hepa1c1c7 cells assessed as increase in NQO1 activity at 1.6 uM; format: cell-based; conditions: filed as activator
[4] = target: T1, Nuclear factor erythroid 2-related factor 2 (Mus musculus); experiment: Activation of Nrf2 in mouse Hepa1c1c7 cells assessed as increase in NQO1 activity at 3.125 uM; format: cell-based; conditions: filed as activator
[5] = target: T1, Nuclear factor erythroid 2-related factor 2 (Mus musculus); experiment: Activation of Nrf2 in mouse Hepa1c1c7 cells assessed as increase in NQO1 activity at 6.25 uM; format: cell-based; conditions: filed as activator
[6] = target: T1, Nuclear factor erythroid 2-related factor 2 (Mus musculus); experiment: Activation of Nrf2 in mouse Hepa1c1c7 cells assessed as increase in NQO1 activity at 12.5 uM; format: cell-based; conditions: filed as activator
[7] = target: T1, Nuclear factor erythroid 2-related factor 2 (Mus musculus); experiment: Activation of Nrf2 in mouse Hepa1c1c7 cells assessed as increase in NQO1 activity at 25 uM; format: cell-based; conditions: filed as activator
[8] = target: T1, Nuclear factor erythroid 2-related factor 2 (Mus musculus); experiment: Activation of Nrf2 in mouse Hepa1c1c7 cells assessed as increase in NQO1 activity at 50 uM; format: cell-based; conditions: filed as activator
[9] = target: T1, Nuclear factor erythroid 2-related factor 2 (Mus musculus); experiment: Activation of Nrf2 in mouse Hepa1c1c7 cells assessed as concentration required to double induction to increase in NQO1 activity; format: cell-based; conditions: filed as activator
[10] = Antioxidant activity assessed as DPPH radical scavenging activity; format: functional
[11] = Toxicity in albino mouse assessed as lethality; conditions: in vivo
Mus musculus [12] = experiment: Radioprotective activity in albino mouse assessed as RBC level at 50 mg/kg, ip administered for 5 days and on day 5 irradiated with gamma radiation and measured after 3 days (reference value: 5.89 +/- 0.27 10^6/UL); format: functional; conditions: time 8 day
Mus musculus [13] = experiment: Radioprotective activity in albino mouse assessed as WBC level at 50 mg/kg, ip administered for 5 days and on day 5 irradiated with gamma radiation and measured after 3 days (reference value: 0.40 +/- 0.03 10^3/UL); format: functional; conditions: time 8 day
Mus musculus [14] = experiment: Radioprotective activity in albino mouse assessed as HGB level at 50 mg/kg, ip administered for 5 days and on day 5 irradiated with gamma radiation and measured after 3 days (reference value: 7.98 +/- 0.24 g/dL); format: functional; conditions: time 8 day
Mus musculus [15] = experiment: Radioprotective activity in albino mouse assessed as HCT level at 50 mg/kg, ip administered for 5 days and on day 5 irradiated with gamma radiation and measured after 3 days (reference value: 23.05 +/- 0.98 %); format: functional; conditions: time 8 day
Mus musculus [16] = experiment: Radioprotective activity in albino mouse assessed as PLT level at 50 mg/kg, ip administered for 5 days and on day 5 irradiated with gamma radiation and measured after 3 days (reference value: 500.3 +/- 49.73 10^3/UL); format: functional; conditions: time 8 day
Mus musculus [17] = experiment: Radioprotective activity in albino mouse assessed as Nrf2 level at 50 mg/kg, ip administered for 5 days and on day 5 irradiated with gamma radiation and measured after 3 days (reference value: 23 %); format: functional; conditions: time 8 day
Mus musculus [18] = experiment: Radioprotective activity in albino mouse assessed as NQO1 level at 50 mg/kg, ip administered for 5 days and on day 5 irradiated with gamma radiation and measured after 3 days (reference value: 192 %); format: functional; conditions: time 8 day
Mus musculus [19] = experiment: Radioprotective activity in albino mouse assessed as ROS level at 50 mg/kg, ip administered for 5 days and on day 5 irradiated with gamma radiation and measured after 3 days (reference value: 39 %); format: functional; conditions: time 8 day
Mus musculus [20] = experiment: Radioprotective activity in albino mouse assessed as MDA level at 50 mg/kg, ip administered for 5 days and on day 5 irradiated with gamma radiation and measured after 3 days (reference value: 86 %); format: functional; conditions: time 8 day
[21] = Toxicity in albino mouse assessed as effect on liver weight at 50 mg/kg, ip administered for 5 days; format: organism-based; conditions: in vivo, 120 h, time 5 day
[22] = Effect on RBC level in albino mouse at 50 mg/kg, ip administered for 5 days (reference value: 7.17 +/- 0.15 10^6/UL); format: functional; conditions: time 5 day
[23] = Effect on WBC level in albino mouse at 50 mg/kg, ip administered for 5 days (reference value: 2.54 +/- 0.16 10^3/UL); format: functional; conditions: time 5 day
[24] = Effect on HGB level in albino mouse at 50 mg/kg, ip administered for 5 days (reference value: 10.75 +/- 0.63 g/dL); format: functional; conditions: time 5 day
[25] = Effect on HCT level in albino mouse at 50 mg/kg, ip administered for 5 days (reference value: 33.45 +/- 1.82 %); format: functional; conditions: time 5 day
Mus musculus [26] = experiment: Radioprotective activity in albino mouse assessed as organism survival rate at 50 mg/kg, ip administered for 5 days and on day 5 irradiated with gamma radiation and measured after 3 days; format: functional, organism-based; conditions: time 8.0 day
Mus musculus [27] = experiment: Radioprotective activity in albino mouse assessed as effect on body weight at 50 mg/kg, ip administered for 5 days and on day 5 irradiated with gamma radiation and measured after 3 days; format: functional, organism-based; conditions: time 8.0 day
[28] = Effect on PLT level in albino mouse at 50 mg/kg, ip administered for 5 days (reference value: 1135 +/- 91.52 10^3/UL); format: functional; conditions: time 5 day

Question: What does the source list for `NS(=O)(=O)c1ccc(-n2c(SCC(=O)Nc3cccnc3Cl)nc3c(I)cc(I)cc3c2=O)cc1`?
Answer: Activity [1]: 0.99; Activity [2]: 0.98; Activity [3]: 1; Activity [4]: 1.09; Activity [5]: 1.17; Activity [6]: 1.38; Activity [7]: 2.13; Activity [8]: 2.65; CD [9]: 25 µM; IC50 [10]: 28 µM; LD50 [11]: 500 mg/kg; Activity (Mus musculus [12]): 6.37 10^6 /uL; Activity (Mus musculus [13]): 1.34 10^3 /uL; Activity (Mus musculus [14]): 9.9 g/dL; Activity (Mus musculus [15]): 25.83%; Activity (Mus musculus [16]): 956.8 10^3 /uL; Activity (Mus musculus [17]): 15%; Activity (Mus musculus [18]): 37%; Activity (Mus musculus [19]): 23%; Activity (Mus musculus [20]): 32%; Activity [21]: Non-Toxic; Activity [22]: 6.13 10^6 /uL; Activity [23]: 2.08 10^3 /uL; Activity [24]: 8.54 g/dL; Activity [25]: 26.86%; Activity (Mus musculus [26]): Active; Activity (Mus musculus [27]): Active; Activity [28]: 1030 10^3 /uL
